The values that follow come from paper PMC7532004, “Site-specific effects of neurosteroids on GABAA receptor activation and desensitization” (eLife, 2020).

One assay has as its target T1, α1(N408A/Y411F)β3 GABAAR (UniProt P28472+P62813, N434A/Y437F).
T1 construct: expressed in transfected cells; host or cells: HEK293S GnTI- (ATCC CRL-3022), transient
The assay is described as follows: [3H]muscimol binding to HEK cell membranes, α1 intrasubunit site mutant. Also noted: species or system rat α1, human β3. As to conditions: for Emax (% of control) of [3H]muscimol binding: 100% means no effect; for Bmax of [3H]muscimol binding isotherm in the presence of the modulator: etomidate 100 μM, 3α5αP 30 μM, KK148 30 μM, control 0.90 ± 0.18. The protocol:
(§1) The human α1 and β3 GABAAR subunits were subcloned into pcDNA3 for molecular manipulations and cRNA synthesis. Using QuikChange Site-Directed Mutagenesis Kit (Agilent Technologies, Santa Clara, CA), a FLAG tag was first added to the α1 subunit then an 8xHis tag was added to generate the following His-FLAG tag tandem ([…]), inserted between the fourth and fifth residues of the mature peptide. The α1 and β3 subunits were then transferred into the pcDNA4/TO and pcDNA5/TO vectors (Thermo Fisher Scientific), respectively, for tetracycline inducible expression. Transient expression was done using the GABAAR subunits rat α1FLAG ([Ueno et al., 1996]) and human β3 obtained from Geoffrey White (Neurogen, Branford, CT), each were subcloned into pcDNA3 for molecular manipulations and cRNA synthesis. Point mutations were generated using the QuikChange Site-Directed Mutagenesis Kit (Agilent) and the coding region was fully sequenced prior to use. The cDNAs were linearized with XbaI (NEB Labs, Ipswich, MA), and the cRNAs were generated using T7 mMessage mMachine (Ambion, Austin, TX).
(§2) [^3H]muscimol-binding assays were performed using a previously described method ([Chen et al., 2019]). […] Assay tubes were incubated for 1 hr on ice in the dark. […] Membranes were collected on Whatman/GF-C glass filter papers using a Brandel cell harvester (Gaithersburg, MD). To perform [^3H]muscimol binding isotherms, 100 μg/ml aliquots of membrane protein were incubated with 0.3 nM–1 μM [^3H]muscimol for 1 hr on ice in the dark. The specific activity for [^3H]muscimol concentrations from 30 nM to 1 μM was reduced to 2 Ci/mmol by dilution with nonradioactive muscimol. The membranes were collected on Whatman/GF-B glass filter papers using a vacuum manifold. […] For [^3H]muscimol-binding experiments examining competitive interactions between neurosteroids, the combined neurosteroids (0.3 μM 3α5αP or 3 μM KK148 ±30 μM KK150) or the same volume of dimethyl sulfoxide (DMSO) were added to the membranes which were then incubated with 3 nM [^3H]muscimol on ice for 1 hr. Time courses of neurosteroid [^3H]muscimol binding enhancement were examined by adding 10 µM of neurosteroids (3α5αP, 3β5αP) to membranes that had been fully equilibrated with 3 nM [^3H]muscimol for 1 hr on ice; binding was then measured as a function of time at 1, 3, 10, 30, 60 min. The membranes were collected on Whatman/GF-B glass filter papers using a vacuum manifold. Radioactivity bound to the filters was measured by liquid scintillation spectrometry using Bio-Safe II (Research Products International, Mount Prospect, IL).

In the next assay the target is T2, α1β3(Y284F) GABAAR (UniProt P28472+P62813, Y309F).
T2 construct: expressed in transfected cells; host or cells: HEK293S GnTI- (ATCC CRL-3022), transient
The assay is described as follows: [3H]muscimol binding to HEK cell membranes, β3 intrasubunit site mutant. More on the design: species or system rat α1, human β3. As to conditions: for Emax (% of control) of [3H]muscimol binding: 100% means no effect. The procedure:
as §1, §2

Where [1] appears, read: α1(N408A/Y411F)β3, 3 nM [3H]muscimol.

Broadly, the EC50 is the concentration needed to bring the measured effect to its halfway point. What is called Kd is the constant that tells how readily two partners part at equilibrium.

The structures appear in SMILES notation. Where two headings read alike, the source gives them in different places.

As for `CC(=O)[C@H]1CC[C@H]2[C@@H]3CC[C@H]4C[C@H](O)CC[C@]4(C)[C@H]3CC[C@]12C` [3α5αP, allopregnanolone], the EC50 was 2300 nM at α1(N408A/Y411F)β3 GABAAR and 190 ± 40 nM at α1β3(Y284F) GABAAR. The “Hill slope for modulation of [3H]muscimol binding” value (“Hill slope for modulation” for short) at α1(N408A/Y411F)β3 GABAAR (setting [1]) came to 0.87 ± 0.44; on α1β3(Y284F) GABAAR (α1β3(Y284F), 3 nM [3H]muscimol) it was 0.87 ± 0.16. Also, the “Emax (% of control) of [3H]muscimol binding” value at α1(N408A/Y411F)β3 GABAAR (setting [1]) is “**146.0 ± 9.3 % of control”; at α1β3(Y284F) GABAAR (α1β3(Y284F), 3 nM [3H]muscimol) it was 342.3 ± 13.9 % of control. Moreover, the “Bmax of [3H]muscimol binding isotherm in the presence of the modulator” value on α1(N408A/Y411F)β3 GABAAR (α1(N408A/Y411F)β3) is 0.93 ± 0.16 pmol/mg. Besides, on α1(N408A/Y411F)β3 GABAAR (α1 intrasubunit site mutation vs WT), the “Decrease of enhancement of [3H]muscimol binding by mutation” value is ~ 80%.
At α1(N408A/Y411F)β3 GABAAR, `CC(=O)[C@H]1CC[C@H]2[C@@H]3CC[C@H]4C[C@@H](O)CC[C@]4(C)[C@H]3CC[C@]12C` [3β5αP, epi-allopregnanolone] had an EC50 of 610 ± 260 nM. In addition, on α1(N408A/Y411F)β3 GABAAR (setting [1]), the “Hill slope for modulation” value is reported as 2.25 ± 0.92 and the “Emax (% of control) of [3H]muscimol binding” value is given as “**124.3 ± 2.6 % of control”. Moreover, on α1β3(Y284F) GABAAR (α1β3(Y284F), 3 nM [3H]muscimol), the “Emax (% of control) of [3H]muscimol binding” value was “**148.6 ± 4.9 % of control”.
Regarding `C#CCCO[C@H]1CC[C@H]2[C@@H]3CC[C@H]4CC5(CC[C@]4(C)[C@H]3CC[C@]12C)N=N5` [KK148], the “Hill slope for modulation” value stood at 0.73 ± 0.23 at α1(N408A/Y411F)β3 GABAAR (setting [1]) and 1.35 ± 0.13 on α1β3(Y284F) GABAAR (α1β3(Y284F), 3 nM [3H]muscimol). The “Emax (% of control) of [3H]muscimol binding” value at α1(N408A/Y411F)β3 GABAAR (setting [1]) is “**161.7 ± 3.5 % of control”; at α1β3(Y284F) GABAAR (α1β3(Y284F), 3 nM [3H]muscimol), “**357.2 ± 8.1 % of control”. Besides, the EC50 amounted to 1630 ± 530 nM on α1(N408A/Y411F)β3 GABAAR (α1(N408A/Y411F)β3, 3 nM [3H]muscimol, read-out: EC50 for modulation of [3H]muscimol binding) and 1790 ± 440 nM on α1β3(Y284F) GABAAR (α1β3(Y284F), 3 nM [3H]muscimol, read-out: EC50 for modulation of [3H]muscimol binding). Moreover, the “Bmax of [3H]muscimol binding isotherm in the presence of the modulator” value at α1(N408A/Y411F)β3 GABAAR (α1(N408A/Y411F)β3) was determined as 0.85 ± 0.22 pmol/mg.
In the case of `NCc1cc(=O)[nH]o1` [muscimol], the “Bmax of [3H]muscimol binding isotherm” value on α1(N408A/Y411F)β3 GABAAR (α1(N408A/Y411F)β3) was 0.9 ± 0.1 (*P < 0.01 vs. WT) pmol/mg; at α1β3(Y284F) GABAAR (α1β3(Y284F)), 10.6 ± 0.9 (P > 0.99 vs. WT) pmol/mg. Further, the Kd on α1(N408A/Y411F)β3 GABAAR (α1(N408A/Y411F)β3, read-out: Kd of [3H]muscimol binding isotherm) was 60.7 ± 7.5 nM; on α1β3(Y284F) GABAAR (α1β3(Y284F), read-out: Kd of [3H]muscimol binding isotherm), 46.6 ± 3.8 nM.
